The target in one assay is Recombinant human DDR2 (Homo sapiens (Human), UniProt Q16832). The assay can be described thus: LanthaScreen Eu Kinase Binding Assay, DDR2. The settings on record: DDR2 1.75 nM (aa427-855, GST tag), Kinase Tracer 178 10 nM; for IC50: read-out: DDR2 pIC50 (converted). The procedure: (§1) DDR1 and DDR2 Biochemical Assay Method
(§2) The capacity of compounds to bind to DDR1 and DDR2 was quantified using a LanthaScreen Eu Kinase Binding Assay. Recombinant human DDR1 (2.5 nM; aa440-876 containing a GST tag) and DDR2 (1.75 nM; aa427-855 containing a GST tag) were diluted in assay buffer (50 mM HEPES pH7.3, 10 mM MgCl2, 1 mM EGTA and 0.01% Tween) with various concentrations of compound in a 384-well plate and a volume of 5 uL. After a 30-minute incubation at room temperature, 2.5 uL of Eu-anti GST antibody (diluted to 1 nM in assay buffer) plus Kinase Tracer 178 (diluted in assay buffer to 5 nM for DDR1 and 10 nM for DDR2) were added to the plate. Following 60-minute incubation at room temperature, time-resolved fluorescence was measured on a BMG Labtech PHERAstar plate reader. DMSO (1%) and reference compound (1 μM) were used to generate the Max and Min assay signals, respectively. Data was analysed using a four-parameter logistic model to calculate IC50 values, with at least two independent replicates were performed for each compound.

The target of another assay is Recombinant human DDR1 (Homo sapiens (Human), UniProt Q08345). The assay can be described thus: LanthaScreen Eu Kinase Binding Assay, DDR1. The settings on record: DDR1 2.5 nM (aa440-876, GST tag), Kinase Tracer 178 5 nM; for IC50: read-out: DDR1 pIC50 (converted). The procedure: as §1, §2
Recombinant human DDR1, sequence (Q08345 other isoform, or with tags, fused parts or gaps): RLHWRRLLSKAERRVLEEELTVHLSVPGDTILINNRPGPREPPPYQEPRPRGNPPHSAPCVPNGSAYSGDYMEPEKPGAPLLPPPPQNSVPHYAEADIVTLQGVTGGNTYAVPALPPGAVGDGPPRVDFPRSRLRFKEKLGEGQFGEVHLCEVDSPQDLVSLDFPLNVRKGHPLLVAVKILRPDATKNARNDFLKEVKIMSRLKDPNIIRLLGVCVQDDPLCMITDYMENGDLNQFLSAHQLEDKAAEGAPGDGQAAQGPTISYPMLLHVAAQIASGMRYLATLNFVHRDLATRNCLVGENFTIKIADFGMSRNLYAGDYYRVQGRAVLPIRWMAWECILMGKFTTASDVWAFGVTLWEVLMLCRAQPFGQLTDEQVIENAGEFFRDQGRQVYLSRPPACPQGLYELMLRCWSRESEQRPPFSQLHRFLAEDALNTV
A general note: TR-FRET usually uses a lanthanide donor and a delayed reading to cut background.

Each structure is given as a SMILES string.

Recombinant human DDR2, sequence (Q16832 427-855): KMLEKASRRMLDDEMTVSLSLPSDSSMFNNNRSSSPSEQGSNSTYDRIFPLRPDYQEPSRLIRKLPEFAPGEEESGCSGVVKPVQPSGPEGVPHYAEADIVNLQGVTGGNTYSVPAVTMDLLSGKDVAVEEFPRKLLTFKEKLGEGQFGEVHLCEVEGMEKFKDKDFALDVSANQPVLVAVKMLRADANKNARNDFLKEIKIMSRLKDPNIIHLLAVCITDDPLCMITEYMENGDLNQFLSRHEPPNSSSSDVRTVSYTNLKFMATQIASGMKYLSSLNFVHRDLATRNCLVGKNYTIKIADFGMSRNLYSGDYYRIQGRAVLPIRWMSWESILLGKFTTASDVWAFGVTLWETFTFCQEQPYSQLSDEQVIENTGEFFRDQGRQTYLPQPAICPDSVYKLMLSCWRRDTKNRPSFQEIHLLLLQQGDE

In the case of `Cn1ncc2cc(Nc3cccc4c3C(=O)N(CC(=O)NCC(F)(F)F)C4)ccc21` [Example 1, 2-[7-[(1-Methylindazol-5-yl)amino]-1-oxo-isoindolin-2-yl]-N-(2,2,2-trifluoroethyl) acetamide], the results for the IC50 at Recombinant human DDR2 and on Recombinant human DDR1 were 10 to 100 nM and under 10 nM, respectively.
`C[C@H](NC(=O)CN1Cc2cccc(Nc3ccc4c(cnn4C)c3)c2C1=O)C(F)(F)F` [Example 2, 2-[7-[(1-Methylindazol-5-yl)amino]-1-oxo-isoindolin-2-yl]-N-[(1S)-2,2,2-trifluoro-1-methyl-ethyl]acetamide]: the “DDR2 pIC50” value at Recombinant human DDR2 was “A (pIC50>8)”. Besides, the “DDR1 pIC50” value on Recombinant human DDR1 is reported as “A (pIC50>8)”.
In the case of `Cn1ncc2cc(Nc3cccc4c3C(=O)N(CC(=O)N3CCC[C@H]3C(F)(F)F)C4)ccc21` [Example 3, 7-[(1-Methylindazol-5-yl)amino]-2-[2-oxo-2-[(2S)-2-(trifluoromethyl)pyrrolidin-1-yl]ethyl]isoindolin-1-one], the IC50 at Recombinant human DDR2 and at Recombinant human DDR1 was under 10 nM in each case.
For `Cn1ncc2cc(Nc3cccc4c3C(=O)N(CC(=O)Nc3cnoc3)C4)ccc21` [Example 4, N-isoxazol-4-yl-2-[7-[(1-methylindazol-5-yl)amino]-1-oxo-isoindolin-2-yl]acetamide], the “DDR2 pIC50” value at Recombinant human DDR2 was “A (pIC50>8)”. Besides, at Recombinant human DDR1, the “DDR1 pIC50” value is on record as “A (pIC50>8)”.
For the compound `Cn1ncc2cc(Nc3cccc4c3C(=O)N(CC(=O)Nc3cccc(C(F)(F)F)c3)C4)ccc21` [Example 5, 2-{7-[(1-methyl-1H-indazol-5-yl)amino]-1-oxo-2,3-dihydro-1H-isoindol-2-yl}-N-[3-(trifluoromethyl)phenyl]acetamide], the IC50 on Recombinant human DDR2 is 10 to 100 nM. For the same compound, the “DDR1 pIC50” value at Recombinant human DDR1 is reported as “A (pIC50>8)”.
Consider `Cn1ncc2cc(Nc3cccc4c3C(=O)N(CC(=O)NCC(F)(F)F)C4(C)C)ccc21` [Example 7, 2-[1,1-dimethyl-4-[(1-methylindazol-5-yl)amino]-3-oxo-isoindolin-2-yl]-N-(2,2,2-trifluoroethyl)acetamide], for which the “DDR2 pIC50” value on Recombinant human DDR2 is reported as “D (pIC50≤6)”. Moreover, the IC50 on Recombinant human DDR1 was 100 to 1000 nM.
Take `CN(c1ccc2c(cnn2C)c1)c1cccc2c1C(=O)N(CC(=O)NCC(F)(F)F)C2` [Example 8, 2-[7-[methyl-(1-methylindazol-5-yl)amino]-1-oxo-isoindolin-2-yl]-N-(2,2,2-trifluoroethyl)acetamide]: the IC50 at Recombinant human DDR2 and at Recombinant human DDR1 was 10 to 100 nM throughout.
`Cn1ncc2cc(Nc3cccc4c3C(=O)N(CC(=O)NCC(F)(F)F)C4)cnc21` [Example 9, 2-[7-[(1-methylpyrazolo[3,4-b]pyridin-5-yl)amino]-1-oxo-isoindolin-2-yl]-N-(2,2,2-trifluoroethyl)acetamide]: the IC50 was 100 to 1000 nM on Recombinant human DDR2 and 10 to 100 nM at Recombinant human DDR1.
Turning to `Cn1ncc2cc(Nc3cccc4c3C(=O)N(CC(=O)Nc3cccc(C(C)(C)O)c3)C4)ccc21` [Example 10, N-[3-(1-hydroxy-1-methyl-ethyl)phenyl]-2-[7-[(1-methylindazol-5-yl)amino]-1-oxo-isoindolin-2-yl]acetamide], the IC50 at Recombinant human DDR2 was 10 to 100 nM. For the same compound, at Recombinant human DDR1, the “DDR1 pIC50” value is on record as “A (pIC50>8)”.
`Cc1cc(Nc2cccc3c2C(=O)N(CC(=O)NCC(F)(F)F)C3)cc2cn[nH]c12` [Example 11, 2-[7-[(7-methyl-1H-indazol-5-yl)amino]-1-oxo-isoindolin-2-yl]-N-(2,2,2-trifluoroethyl)acetamide]: the “DDR2 pIC50” value on Recombinant human DDR2 is given as “A (pIC50>8)”. Also, on Recombinant human DDR1, the “DDR1 pIC50” value is “A (pIC50>8)”.
In the case of `Cn1ncc2cc(Nc3cccc4c3C(=O)N(CC(=O)N3CCCC(C(F)(F)F)C3)C4)ccc21` (stereo not shown) [Example 12], at Recombinant human DDR2, the IC50 was 10 to 100 nM.
For `Cc1n[nH]c2cc(Nc3cccc4c3C(=O)N(CC(=O)NCC(F)(F)F)C4)cc(Cl)c12` [Example 91, 2-[7-[(4-chloro-3-methyl-1H-indazol-6-yl)amino]-1-oxo-isoindolin-2-yl]-N-(2,2,2-trifluoroethyl)acetamide], the IC50 at Recombinant human DDR1 was 10 to 100 nM.
